Data published in US8318950B2, “N-acyl amino acid derivatives, a method for the preparation thereof, a pharmaceutical composition and use thereof as anti-allergic, anti-inflammatory and hypolipidemic agents” (Otkrytoe Aktsionernoe Obschestvo-Otechestvennye Lekarstva, priority 2005, dated 2012).

Key:
[1] = system: allergic rhinitis in guinea pigs; assay: Model of allergic rhinitis in guinea pigs (nasal wash-off cytology); format: in vivo, guinea pig; settings: 0.1% solution, inhalations daily for 6 days
Description: The model of allergic rhinitis in guinea pigs was used.
Guinea pigs were immunized according to the certain scheme for 1.5-2 months (Hutson P. A., Church M. K. et al. 1988): the animals were first immunized by intraperitoneal administration of ovalbumin at dose 10 mg/kg at 7-day interval (twice), then ovalbumin solution was inhaled to the guinea pigs using the Pari nebulizer at increasing concentration beginning from 0.1% and reaching 1% at 4-day intervals between inhalations. The last ovalbumin dose was administered into the nasal passages using a micropipette. 24 hours post the last ovalbumin administration nasal washing was collected (through a system of special tubes) and changes in nasal mucosa was assessed using a complex of histological and cytological methods. The compounds tested (0.1% solution) were daily administered in the form of inhalations using nebulizing device for 6 days; at day 6 of administration, antigen (OA) challenge was performed. Nasal wash-off was obtained 24 hours post challenge.

[2] = system: allergic pneumonitis in guinea pigs; assay: Model of allergic pneumonitis in guinea pigs (broncho-alveolar wash-off cytology); format: in vivo, guinea pig; settings: 0.1% solution, inhalations daily for 6 days
Description: The model of allergic pneumonitis in guinea pigs was used.
Immunization of the animals was similar to that described in Example 7.
24 hours post the last ovalbumin administration broncho-alveolar wash-off was collected (through a cannula inserted into the trachea), and changes in bronchial mucosa was assessed using a complex of histological and cytological methods.
The compounds tested (0.1% solution) were daily administered in the form of inhalations using a nebulizing device for 6 days; at day 6 of administration, antigen (OA) challenge was performed.
(§1) Broncho-alveolar wash-off was obtained in rats and guinea pigs under hexenal anesthesia by double washing the lungs through the trachea with 10 ml normal saline. Viability of cells was determined in the test with tryptane blue. Absolute number of cells in 1 ml (cytosis) was determined in the broncho-alveolar wash-off liquid (BAW) using the Goryaev's chamber. In the smears of the BAW liquid precipitate obtained using centrifugation at 200 g for 10 minutes and then stained according to Romanovskcy-Gimza, endopulmonary cytogram was calculated (in percent) [Avtsyn A. P., Lukomskij G. I., Romanova L. K. et al. Endopul'monal'naya cytogramma.//Sov. Med. 1982. No 7. pp. 8-14].

[3] = system: Sephadex A-25 induced pneumonitis in Wistar rats; assay: Sephadex-induced (6-day) pneumonitis in rats; format: in vivo, rat
Description: The Model of Sephadex-Induced (6-Day) Pneumonitis in Rats
Male Wistar rats weighing 270-300 g were used in the tests.
Inflammation in the lungs was induced by a single inhalation of sephadex A-25 (hydrophilic powder with particle sizes from 20 to 80 μm) at dose 5 mg/kg using a dosing device which is a laboratory analog of the inhaler “Cyclohaler” (the Scientific-Research Institute for Pulmonology of the RF).
Sephadex A-25 at dose 5 mg per 1 kg body weight was administered to rats under ester anesthesia using an original dosing device for inhalation administering dry powders. Following administration of Sephadex A-25, Wistar rats rapidly recovered form anesthesia, and no peculiarities in their behavior and respiration character were noted. The substances in the form of a dry powder were administered by inhalation at dose 500 μg/kg 1 hour post Sephadex administration, then for 5 days in succession once daily at one and the same morning hours. The control was represented by two groups: a group of intact animals, and a group of rats administered once with Sephadex by inhalation.
The results of therapeutic action of pharmacological substances on pneumonitis development were assessed using morphological and morphometric parameters (volume density and alveolitis) 6 days post aerosol Sephadex administration.
Histological examinations of the lungs stained by hematoxyline and eosine.
4-5 μm thick histological lung slices were prepared wherein neutrophil number was calculated as well as volume density of alveolitis and emphysema was assessed using the Avtandilov's mesh [Avtandilov G. G., Vvedeniye v kolichestvennuyu pathologicheskuyu morphologiyu.//Moscow. “Meditsina” publishers. 1980. p. 203]. Morphometric examination of pulmonary lymphoid tissue was also carried out. To this end, micro preparations of the lungs were fixed according to the method of Beinenstock et al [Bienenstock J., Johnson N., Perey D. Y. E. Bronchial lymphoid tissue 1. Morphologic characteristics//Lab. Invest. 1973. v. 28 p. 693-698.] […] Volume density of alveolitis and emphysema was determined using the point calculation method.
as §1, with “Med. 1982. No 7. pp. 8-14].” left out

SMILES: O=C(O)CCCC(=O)N[C@@H](Cc1c[nH]cn1)C(=O)O [Compound IV, N^α-glutaryl-L-histidine]
- Absolute number of Macrophags in nasal wash-off [1]: 6.1 ± 0.75 in 1 μl
- Absolute number of Neutrophils in nasal wash-off [1]: 3.1 ± 1.02 in 1 μl
- Citogram of nasal wash-off: Lymphocytes [1]: 5.7 ± 1.54%
- Cytosis (absolute number of cells in 1 μl) in nasal wash-off ([1]; wash-off 24 hours post challenge): 43.7 ± 6.65°* cells in 1 μl
- Absolute number of Macrophags in broncho-alveolar wash-off [2]: 640.1 ± 57.98 in 1 μl
- Cytosis (absolute number of cells in 1 μl) in broncho-alveolar wash-off [2]: 1331.3 ± 277.4 cells in 1 μl
- emphysema (histological examination of the lungs) ([3]; 500 μg/kg by inhalation): not practically detected
- infiltration of interalveolar septa with neutrophils ([3]; 500 μg/kg by inhalation): not noted
- prevalence of alveolitis (histological examination of the lungs) ([3]; compared to the model group, 500 μg/kg by inhalation): significantly lower
- Absolute number of Macrophags in 1 μl BAW ([3]; dry powder by inhalation 500 μg/kg): 152.4 ± 18.5 cells in 1 μl BAW
